# Source: US9320682B2, “Tooth filling materials and dental varnish for inhibiting the formation of a biofilm of Streptococcus mutans and the production thereof” (VOCO Gmbh, priority 2012, dated 2016)
# What was measured:
# Assay type in all cases: cell-based
# [1] = system: Streptococcus mutans UA159; assay: Colony-forming units of Streptococcus mutans biofilm after treatment with solutions of active substances (Example 8); details: for reduction in the colony-forming units: active substance in solution, final concentrations 0.25 μg/ml and 2.5 μg/ml, 20 hours anaerobic at 37° C.; for antimicrobial action in relation to Streptococcus mutans: solutions of the active substances at specific low concentrations (Example 8)
# Procedure: In a THB nutrition medium, an over-night culture of Streptococcus mutans UA159 was cultivated anaerobically. That over-night culture was diluted to an optimum density (at 620 nm; OD620) of from 0.01 to 0.03 with THB (with addition of 0.5% (GN) of saccharose) so that a dilute bacterial suspension was obtained.
# (§1) Stock solutions and corresponding diluted solutions of chlorohexidine, triclosan and carolacton were produced in methanol. […] of those solutions to be tested were introduced by pipette into microtitration plates; 9 parallel wells were used per substance and concentration. The methanol was evaporated (under a hood) and then 200 μl of the dilute bacterial suspension were added. The final concentrations of the active substances in the 200 μl of bacterial suspension were 0.25 μg/ml and 2.5 μg/ml. The plates were incubated anaerobically at 37° C. without agitation for 20 hours. Subsequently, the excess was removed by pipette, the biofilm was washed with a physiological cooking salt solution (0.85% of NaCl) and the biofilm was scraped off with a pipette. The biofilms from three parallel wells were suspended in 500 μl of PBS. From that biofilm suspension, a serial dilution in PBS was prepared. After each dilution step, vortexing was carried out for 1 minute. From each dilution, 50 μl was distributed three times on agar plates (TH medium). The plates were incubated for three days in the CO2 cupboard at 37° C., then the colony-forming units (CFU) were counted and the bacteria density in relation to […] of biofilm suspension was calculated.
# [2] = system: Streptococcus mutans UA159; assay: Biofilm inhibition on hardened tooth filling material test members, LIVE/DEAD BacLight fluorescence (Example 9); details: for biofilm inhibition (in words): active substance in hardened tooth filling material, carolacton 25 μg/ml, triclosan and chlorohexidine 2500 μg/ml
# Procedure: The admixture from example 2 was used as the tooth filling material according to the invention.
# (§2) In addition, three tooth filling materials similar to example 2 were prepared, where carolacton was replaced with triclosan in a first comparison admixture, carolacton was replaced with chlorohexidine in a second comparison admixture and carolacton was omitted in a third comparison admixture (control).
# (§3) From each of the tooth filling materials produced, by hardening the tooth filling material 10 dental test members were produced with a diameter of 7 mm and a height of 1 mm and adhesively bonded with a small quantity of the tooth filling material in a total of 40 wells of a 96-well microtitration plate of polystyrene (Greiner Bio-One, μ Clear Plate Black, Frickenhausen, Germany).
# In a THB nutrition medium, an over-night culture of Streptococcus mutans UA159 was produced under anaerobic conditions. The over-night culture obtained was diluted to an optimum density (at 620 nm; OD620) of from 0.01 to 0.03 with THB (with addition of 0.5% (G/V) of saccharose). Subsequently, 200 μl of the dilute over-night culture was introduced by pipette into the wells of the 96-well microtitration plate provided with the dental test members. The microtitration plate was subsequently incubated for 20 hours at 37° C. under anaerobic conditions in an incubator.
# The determination of the biofilm inhibition was carried out with a LIVE/DEAD BacLight kit L13152 (Invitrogen, Molecular Probes, Inc. Eugene, Oreg., USA), taking note of the manufacturer's instructions. The kit comprises two dye solutions, propidium iodide and SYT09 which each discolour nucleic acids. The excesses of the biofilms in the individual wells of the 96-well microtitration plate were removed. In order to remove plankton-like or loosely bonded bacteria, the biofilm was carefully washed with 200 μl of a 0.85% NaCl solution, mixed with 200 μl of a 1:1 admixture of propidium iodide and SYT09 and subsequently left to stand for 15 minutes and at ambient temperature with light being excluded. The measurement of the fluorescence was carried out on a Wallac Victor3™ 1420Multilabel Counter (Perkin-Elmer Life Sciences) provided with detectors and filters for measuring the fluorescence at 630 nm (red) and 535 nm (green). The biofilm inhibition is given in percent as a quotient between the quotient of green and red fluorescence of the sample with the active substance (carolacton, chlorohexidine or triclosan) and the quotient of green and red fluorescence of the sample without any active substance (control).
# [3] = system: Streptococcus mutans UA159; assay: Colony-forming units in the biofilm on tooth filling material test members (Example 9); details: triclosan and chlorohexidine at a hundred times the concentration of carolacton
# Procedure: as §1, §2, §3
# In a THB nutrition medium, an over-night culture of Streptococcus mutans UA159 was produced under anaerobic conditions. […]
Compound,reduction in the colony-forming units [1],antimicrobial action in relation to Streptococcus mutans [1],"inhibition at 25 µg/mL ([2]; Streptococcus mutans, UA159, active substance 25 μg/ml in hardened tooth filling material of example 2, 20 hours, green/red fluorescence quotient vs control)",biofilm inhibition (in words) [2],effect on number of CFU in the biofilm (in words) [3],"inhibition at 2500 µg/mL ([2]; Streptococcus mutans, UA159, 20 h, read-out: Biofilm inhibition [%])","Biofilm inhibition [%] ([2]; active substance 2500 μg/ml in hardened tooth filling material similar to example 2, 20 hours, green/red fluorescence quotient vs control)"
COC(CC(=O)O)C(C)C(=O)C(C)/C=C(\C)C1OC(=O)C(O)C(O)/C=C/C(C)CCCC1C (stereo not drawn) [carolacton],merely weakly reduces the number of colony-forming units,only has a weak antimicrobial action,51%,very good biofilm inhibition,powerful inhibiting effect,,
Oc1cc(Cl)ccc1Oc1ccc(Cl)cc1Cl [triclosan],very powerful reduction in the colony-forming units,very powerful antimicrobial activity,,scarcely influence the biofilm formation,"neither triclosan nor chlorohexidine, although used at a hundred times the concentration of carolacton, results in a powerful reduction of the number of CFU",1%,
N=C(NCCCCCCNC(=N)NC(=N)Nc1ccc(Cl)cc1)NC(=N)Nc1ccc(Cl)cc1 [chlorohexidine],very powerful reduction in the colony-forming units,very powerful antimicrobial activity,,scarcely influence the biofilm formation,"neither triclosan nor chlorohexidine, although used at a hundred times the concentration of carolacton, results in a powerful reduction of the number of CFU",,1%
